# From US20240239772A1, “PROTEASE INHIBITORS AND METHODS OF USE” (The Cleveland Clinic Foundation, priority 2021, published 2024)
# Target: SARS-CoV-2 3CLpro (Severe acute respiratory syndrome coronavirus 2 (2019-nCoV) (SARS-CoV-2), UniProt P0DTD1)
# Test: biochemical
# Format: biochemical
# Details: read-out: SARS-CoV-2 IC50
row,SMILES,IC50 [nM]
1,"O=C(Cn1nnc2ccccc21)N(Cc1ccsc1)c1ccc(-c2c[nH]cn2)cc1 [Compound 21, 2-(Benzotriazol-1-yl)-N-[4-(1H-imidazol-4-yl)phenyl]-N-(3-thienylmethyl)acetamide]",60 ± 10
2,"O=C(Cn1nnc2ccccc21)N(Cc1cccc(Cl)c1)c1ccc(-c2cccnc2)cc1 [Compound 28, 2-(Benzotriazol-1-yl)-N-[(3-chlorophenyl)methyl]-N-[4-(3-pyridyl)phenyl]acetamide]",390 ± 110
3,"NC(=O)Cc1ccc(N(Cc2cc(F)cc(F)c2)C(=O)Cn2nnc3ccccc32)cc1 [Compound 94, 2-[4-[[2-(benzotriazol-1-yl)acetyl]-[(3,5-difluorophenyl)methyl]amino]phenyl]acetamide]",670
4,"O=C(Cn1nnc2ccccc21)N(Cc1ccnc(C(F)(F)F)c1)c1ccc(-c2c[nH]cn2)cc1 [Compound 95, 2-(benzotriazol-1-yl)-N-[4-(1H-imidazol-4-yl)phenyl]-N-[[2-(trifluoromethyl)-4-pyridyl]methyl]acetamide]",2900
5,"O=C(Cn1nnc2ccccc21)N(Cc1cncc(C(F)(F)F)c1)c1ccc(-c2c[nH]cn2)cc1 [Compound 96, 2-(benzotriazol-1-yl)-N-[4-(1H-imidazol-4-yl)phenyl]-N-[[5-(trifluoromethyl)-3-pyridyl]methyl]acetamide]",350
6,"O=C(Cn1nnc2ccccc21)N(Cc1cncc(F)c1)c1ccc(-c2c[nH]cn2)cc1 [Compound 97, 2-(benzotriazol-1-yl)-N-[(5-fluoro-3-pyridyl)methyl]-N-[4-(1H-imidazol-4-yl)phenyl]acetamide]",130
7,"O=C(Cn1nnc2ccccc21)N(Cc1c(F)cccc1F)c1ccc(-c2c[nH]cn2)cc1 [Compound 98, 2-(benzotriazol-1-yl)-N-[(2,6-difluorophenyl)methyl]-N-[4-(1H-imidazol-4-yl)phenyl]acetamide]",980
8,"O=C(Cn1nnc2ccccc21)N(Cc1cc(F)cc(F)c1)c1ccc(CCO)cc1 [Compound 99, 2-(benzotriazol-1-yl)-N-[(3,5-difluorophenyl)methyl]-N-[4-(2-hydroxyethyl)phenyl]acetamide]",460
9,"O=C(Cn1nnc2ccccc21)N(Cc1cc(F)cc(F)c1)c1ccc(-c2ncc[nH]2)cc1 [Compound 100, 2-(benzotriazol-1-yl)-N-[(3,5-difluorophenyl)methyl]-N-[4-(1H-imidazol-2-yl)phenyl]acetamide]",340
10,"O=C1CNCCN1c1ccc(N(Cc2cc(F)cc(F)c2)C(=O)Cn2nnc3ccccc32)cc1 [Compound 101, 2-(benzotriazol-1-yl)-N-[(3,5-difluorophenyl)methyl]-N-[4-(2-oxopiperazin-1-yl)phenyl]acetamide]",3400
11,"N#Cc1ccc(N(Cc2cc(F)cc(F)c2)C(=O)Cn2nnc3ccccc32)cc1 [Compound 102, 2-(benzotriazol-1-yl)-N-(4-cyanophenyl)-N-[(3,5-difluorophenyl)methyl]acetamide]",4700
12,"O=C(Cn1nnc2ccccc21)N(Cc1ccc(F)cn1)c1ccc(-c2c[nH]cn2)cc1 [Compound 103, 2-(benzotriazol-1-yl)-N-[(5-fluoro-2-pyridyl)methyl]-N-[4-(1H-imidazol-4-yl)phenyl]acetamide]",9500
13,"Cc1nc(-c2ccc(N(Cc3cc(F)cc(F)c3)C(=O)Cn3nnc4ccccc43)cc2)c[nH]1 [Compound 104, 2-(benzotriazol-1-yl)-N-[(3,5-difluorophenyl)methyl]-N-[4-(2-methyl-1H-imidazol-4-yl)phenyl]acetamide]",170
14,"O=C(Cn1nnc2ccccc21)N(Cc1cc(F)cc(F)c1)c1ccc(-c2c[nH]nn2)cc1 [Compound 105, 2-(benzotriazol-1-yl)-N-[(3,5-difluorophenyl)methyl]-N-[4-(1H-triazol-4-yl)phenyl]acetamide]",180
15,"O=C(Cn1nnc2ccccc21)N(Cc1cc(F)cc(F)c1)c1ccc(-c2nnc[nH]2)cc1 [Compound 106, 2-(benzotriazol-1-yl)-N-[(3,5-difluorophenyl)methyl]-N-[4-(4H-1,2,4-triazol-3-yl)phenyl]acetamide]",940
16,"NCCc1ccc(N(Cc2cc(F)cc(F)c2)C(=O)Cn2nnc3ccccc32)cc1 [Compound 107, N-[4-(2-aminoethyl)phenyl]-2-(benzotriazol-1-yl)-N-[(3,5-difluorophenyl)methyl]acetamide]",430
17,"O=C(Cn1nnc2ccccc21)N(Cc1cc(F)cc(F)c1)c1ccc(C2CCNC2)cc1 (centres unmarked) [Compound 108, 2-(benzotriazol-1-yl)-N-[(3,5-difluorophenyl)methyl]-N-(4-pyrrolidin-3-ylphenyl)acetamide]",210

row,SMILES,IC50 [nM]
1,"O=C1C=C(c2ccc(N(Cc3cc(F)cc(F)c3)C(=O)Cn3nnc4ccccc43)cc2)CN1 [Compound 109, 2-(benzotriazol-1-yl)-N-[(3,5-difluorophenyl)methyl]-N-[4-(5-oxo-1,2-dihydropyrrol-3-yl)phenyl]acetamide]",340
2,"COc1ccc(F)cc1CN(C(=O)Cn1nnc2ccccc21)c1ccc(-c2c[nH]cn2)cc1 [Compound 110, 2-(benzotriazol-1-yl)-N-[(5-fluoro-2-methoxy-phenyl)methyl]-N-[4-(1H-imidazol-4-yl)phenyl]acetamide]",200
3,"COc1cc(F)cc(CN(C(=O)Cn2nnc3ccccc32)c2ccc(-c3c[nH]cn3)cc2)c1 [Compound 111, 2-(benzotriazol-1-yl)-N-[(3-fluoro-5-methoxy-phenyl)methyl]-N-[4-(1H-imidazol-4-yl)phenyl]acetamide]",69
4,"O=C(Cn1ccnn1)N(Cc1cc(F)cc(Cl)c1)c1ccc(-c2c[nH]cn2)cc1 [Compound 112, N-[(3-chloro-5-fluoro-phenyl)methyl]-N-[4-(1H-imidazol-4-yl)phenyl]-2-(triazol-1-yl)acetamide]",410
5,"O=C(Cn1ccnn1)N(Cc1cccc(Cl)c1)c1ccc(-c2cn[nH]c2)cc1 [Compound 113, N-[(3-chlorophenyl)methyl]-N-[4-(1H-pyrazol-4-yl)phenyl]-2-(triazol-1-yl)acetamide]",8200
6,"CC(C)(C)CN(C(=O)Cn1nnc2ccccc21)c1ccc(-c2c[nH]cn2)cc1 [Compound 114, 2-(benzotriazol-1-yl)-N-(2,2-dimethylpropyl)-N-[4-(1H-imidazol-4-yl)phenyl]acetamide]",1600
7,"O=C1CC(c2ccc(N(Cc3cc(F)cc(F)c3)C(=O)Cn3nnc4ccccc43)cc2)CN1 (centres unmarked) [Compound 115, 2-(benzotriazol-1-yl)-N-[(3,5-difluorophenyl)methyl]-N-[4-(5-oxopyrrolidin-3-yl)phenyl]acetamide]",240
8,"O=C(Cn1nnc2ccccc21)N(Cc1ccc(Cl)c(F)c1)c1ccc(-c2c[nH]cn2)cc1 [Compound 116, 2-(benzotriazol-1-yl)-N-[(4-chloro-3-fluoro-phenyl)methyl]-N-[4-(1H-imidazol-4-yl)phenyl]acetamide]",2500
9,"COc1ccc(CN(C(=O)Cn2nnc3ccccc32)c2ccc(-c3c[nH]cn3)cc2)cc1F [Compound 117, 2-(benzotriazol-1-yl)-N-[(3-fluoro-4-methoxy-phenyl)methyl]-N-[4-(1H-imidazol-4-yl)phenyl]acetamide]",970
10,"O=C(Cn1nnc2ccccc21)N(Cc1cc(F)cc(F)c1)c1ccc(C2CNC2)cc1 [Compound 118, N-[4-(azetidin-3-yl)phenyl]-2-(benzotriazol-1-yl)-N-[(3,5-difluorophenyl)methyl]acetamide]",78
11,"O=C(Cn1nnc2ccccc21)N(Cc1cncc(F)c1)c1ccc(C2CNC2)cc1 [Compound 119, N-[4-(azetidin-3-yl)phenyl]-2-(benzotriazol-1-yl)-N-[(5-fluoro-3-pyridyl)methyl]acetamide]",600
12,"O=C(Cn1nnc2ccccc21)N(Cc1cc(F)cc(OC(F)(F)F)c1)c1ccc(-c2c[nH]cn2)cc1 [Compound 120, 2-(benzotriazol-1-yl)-N-[[3-fluoro-5-(trifluoromethoxy)phenyl]methyl]-N-[4-(1H-imidazol-4-yl)phenyl]acetamide]",120
13,"O=C(Cn1nnc2ccccc21)N(Cc1cc(F)cc(Cl)c1)c1ccc(C2CNC2)cc1 [Compound 121, N-[4-(azetidin-3-yl)phenyl]-2-(benzotriazol-1-yl)-N-[(3-chloro-5-fluoro-phenyl)methyl]acetamide]",100
14,"O=C(Cn1nnc2ccccc21)N(Cc1cncc(F)c1)c1ccc(C2=CCNC2)cc1 [Compound 122, 2-(benzotriazol-1-yl)-N-[4-(2,5-dihydro-1H-pyrrol-3-yl)phenyl]-N-[(5-fluoro-3-pyridyl)methyl]acetamide]",1500
15,"CC(=O)NCc1ccc(N(Cc2cc(F)cc(F)c2)C(=O)Cn2nnc3ccccc32)cc1 [Compound 123, N-[4-(acetamidomethyl)phenyl]-2-(benzotriazol-1-yl)-N-[(3,5-difluorophenyl)methyl]acetamide]",780
16,"NCc1ccc(N(Cc2cc(F)cc(F)c2)C(=O)Cn2nnc3ccccc32)cc1 [Compound 124, N-[4-(aminomethyl)phenyl]-2-(benzotriazol-1-yl)-N-[(3,5-difluorophenyl)methyl]acetamide]",59

# Tested on: SARS-CoV-2
# Test: microbe, parasite or virus in culture
# Format: cell-based
# Details: Severe acute respiratory syndrome coronavirus 2, Vero C1008, 68 h, read-out: CPE Inhibition Assay EC50
row,SMILES,EC50 [µM]
1,"O=C(Cn1nnc2ccccc21)N(Cc1ccsc1)c1ccc(-c2cccnc2)cc1 [Compound 17b, 2-(1H-benzo[d][1,2,3]triazol-1-yl)-N-(4-(pyridin-3-yl)phenyl)-N-(thiophen-3-ylmethyl)acetamide, reference compound]",12.1 ± 0.31
2,"O=C(Cn1nnc2ccccc21)N(Cc1ccsc1)c1ccc(-c2c[nH]cn2)cc1 [Compound 21, 2-(Benzotriazol-1-yl)-N-[4-(1H-imidazol-4-yl)phenyl]-N-(3-thienylmethyl)acetamide]",1.74 ± 0.19
3,"O=C(Cn1nnc2ccccc21)N(Cc1cccc(Cl)c1)c1ccc(-c2cccnc2)cc1 [Compound 28, 2-(Benzotriazol-1-yl)-N-[(3-chlorophenyl)methyl]-N-[4-(3-pyridyl)phenyl]acetamide]",7.61 ± 1.43
4,"CCC(CC)COC(=O)[C@H](C)N[P@](=O)(OC[C@H]1O[C@@](C#N)(c2ccc3c(N)ncnn23)[C@H](O)[C@@H]1O)Oc1ccccc1 [Remdesivir, reference compound]",0.34 ± 0.01

# Tested on: SARS-CoV-2
# Test: microbe, parasite or virus in culture
# Format: cell-based
# Details: Severe acute respiratory syndrome coronavirus 2, Vero C1008, read-out: Plaque Reduction Assay EC50
row,SMILES,EC50 [µM]
1,"O=C(Cn1nnc2ccccc21)N(Cc1ccsc1)c1ccc(-c2cccnc2)cc1 [Compound 17b, 2-(1H-benzo[d][1,2,3]triazol-1-yl)-N-(4-(pyridin-3-yl)phenyl)-N-(thiophen-3-ylmethyl)acetamide, reference compound]",14.6 ± 1.22
2,"O=C(Cn1nnc2ccccc21)N(Cc1ccsc1)c1ccc(-c2c[nH]cn2)cc1 [Compound 21, 2-(Benzotriazol-1-yl)-N-[4-(1H-imidazol-4-yl)phenyl]-N-(3-thienylmethyl)acetamide]",1.75 ± 0.25
3,"O=C(Cn1nnc2ccccc21)N(Cc1cccc(Cl)c1)c1ccc(-c2cccnc2)cc1 [Compound 28, 2-(Benzotriazol-1-yl)-N-[(3-chlorophenyl)methyl]-N-[4-(3-pyridyl)phenyl]acetamide]",11.1 ± 0.37
4,"CCC(CC)COC(=O)[C@H](C)N[P@](=O)(OC[C@H]1O[C@@](C#N)(c2ccc3c(N)ncnn23)[C@H](O)[C@@H]1O)Oc1ccccc1 [Remdesivir, reference compound]",0.43 ± 0.06
